Experimental data published in patent US12480944B2, “Detection and analysis of cells” (First Light Diagnostics, Inc., priority 2018, dated 2025).
Where two headings read alike, the source gives them in different places.

Key:
P. aeruginosa = system: P. aeruginosa; design: key: previously determined antibiotic resistance (shown with “X”); “IR” = Intrinsically resistant; conditions: cited from earlier work
E. coli = system: E. coli; design: key: previously determined antibiotic resistance (shown with “X”); “IR” = Intrinsically resistant; conditions: cited from earlier work
K. pneumoniae = system: K. pneumoniae; design: key: previously determined antibiotic resistance (shown with “X”); “IR” = Intrinsically resistant; conditions: cited from earlier work
P. mirabilis = system: P. mirabilis; design: key: previously determined antibiotic resistance (shown with “X”); “IR” = Intrinsically resistant; conditions: cited from earlier work
K. oxytoca = system: K. oxytoca; design: key: previously determined antibiotic resistance (shown with “X”); “IR” = Intrinsically resistant; conditions: cited from earlier work
[1] = system: K. pneumonaie strain in clinical urine sample BIUR0084; assay: Automated MultiPath AST cartridge on clinical urine specimen, Example 8; type: cell-based; conditions: clinical urine BIUR0084 (K. pneumoniae), fold growth value of 2; for growth call at all antibiotic concentrations: 2 concentrations; for sensitive/resistant call by MulitPath: 4 h growth at 35° C., matched CLSI BMD
[2] = strain P. aeruginosa ATCC 27853
[3] = strain K. pneumoniae ATCC 13883

CC(C)(O/N=C(\C(=O)N[C@@H]1C(=O)N2C(C(=O)[O-])=C(C[n+]3ccccc3)CS[C@H]12)c1csc(N)n1)C(=O)O [Ceftazidime]
previously determined antibiotic resistance (P. aeruginosa; [2]): X | previously determined antibiotic resistance (P. aeruginosa; strain P. aeruginosa CDC0105): X | previously determined antibiotic resistance (P. aeruginosa; strain P. aeruginosa CDC0111): X | previously determined antibiotic resistance (P. aeruginosa; strain P. aeruginosa CDC0242): X | previously determined antibiotic resistance (P. aeruginosa; strain P. aeruginosa CDC0251): X | previously determined antibiotic resistance (P. aeruginosa; strain P. aeruginosa CDC0253): X | previously determined antibiotic resistance (E. coli; strain E. coli ATCC 25922): X | previously determined antibiotic resistance (E. coli; strain E. coli CDC0020): X | previously determined antibiotic resistance (E. coli; strain E. coli CDC0067): X | previously determined antibiotic resistance (E. coli; strain E. coli CDC0084): X | previously determined antibiotic resistance (E. coli; strain E. coli CDC0086): X | previously determined antibiotic resistance (E. coli; strain E. coli CDC0350): X | previously determined antibiotic resistance (K. pneumoniae; [3]): X | previously determined antibiotic resistance (K. pneumoniae; strain K. pneumoniae CDC0010): X | previously determined antibiotic resistance (K. pneumoniae; strain K. pneumoniae CDC0016): X | previously determined antibiotic resistance (K. pneumoniae; strain K. pneumoniae CDC0041): X | previously determined antibiotic resistance (K. pneumoniae; strain K. pneumoniae CDC0107): X | previously determined antibiotic resistance (K. pneumoniae; strain K. pneumoniae CDC0126): X | previously determined antibiotic resistance (K. pneumoniae; strain K. pneumoniae CDC0160): X | previously determined antibiotic resistance (P. mirabilis; strain P. mirabilis ATCC 7002): X | previously determined antibiotic resistance (P. mirabilis; strain P. mirabilis CDC0029): X | previously determined antibiotic resistance (P. mirabilis; strain P. mirabilis CDC0059): X | previously determined antibiotic resistance (P. mirabilis; strain P. mirabilis CDC0155): X | previously determined antibiotic resistance (P. mirabilis; strain P. mirabilis CDC0156): X | previously determined antibiotic resistance (P. mirabilis; strain P. mirabilis CDC0159): X | previously determined antibiotic resistance (K. oxytoca; strain K. oxytoca CDC0028): X | previously determined antibiotic resistance (K. oxytoca; strain K. oxytoca CDC0071): X | previously determined antibiotic resistance (K. oxytoca; strain K. oxytoca CDC0147): X

C[C@@H](O)[C@H]1C(=O)N2C(C(=O)O)=C(S[C@@H]3CN[C@H](C(=O)N(C)C)C3)[C@H](C)[C@H]12 [Meropenem]
previously determined antibiotic resistance (P. aeruginosa; strain P. aeruginosa CDC0105): X | previously determined antibiotic resistance (P. aeruginosa; strain P. aeruginosa CDC0111): X | previously determined antibiotic resistance (P. aeruginosa; strain P. aeruginosa CDC0232): X | previously determined antibiotic resistance (P. aeruginosa; strain P. aeruginosa CDC0242): X | previously determined antibiotic resistance (P. aeruginosa; strain P. aeruginosa CDC0247): X | previously determined antibiotic resistance (E. coli; strain E. coli ATCC 25922): X | previously determined antibiotic resistance (E. coli; strain E. coli CDC0001): X | previously determined antibiotic resistance (E. coli; strain E. coli CDC0006): X | previously determined antibiotic resistance (E. coli; strain E. coli CDC0020): X | previously determined antibiotic resistance (E. coli; strain E. coli CDC0085): X | previously determined antibiotic resistance (E. coli; strain E. coli CDC0114): X | previously determined antibiotic resistance (K. pneumoniae; [3]): X | previously determined antibiotic resistance (K. pneumoniae; strain K. pneumoniae CDC0010): X | previously determined antibiotic resistance (K. pneumoniae; strain K. pneumoniae CDC0016): X | previously determined antibiotic resistance (K. pneumoniae; strain K. pneumoniae CDC0034): X | previously determined antibiotic resistance (K. pneumoniae; strain K. pneumoniae CDC0043): X | previously determined antibiotic resistance (K. pneumoniae; strain K. pneumoniae CDC0076): X | previously determined antibiotic resistance (K. pneumoniae; strain K. pneumoniae CDC0080): X | previously determined antibiotic resistance (P. mirabilis; strain P. mirabilis ATCC 7002): X | previously determined antibiotic resistance (P. mirabilis; strain P. mirabilis CDC0029): X | previously determined antibiotic resistance (P. mirabilis; strain P. mirabilis CDC0059): X | previously determined antibiotic resistance (P. mirabilis; strain P. mirabilis CDC0155): X | previously determined antibiotic resistance (P. mirabilis; strain P. mirabilis CDC0156): X | previously determined antibiotic resistance (P. mirabilis; strain P. mirabilis CDC0159): X | previously determined antibiotic resistance (K. oxytoca; strain K. oxytoca CDC0028): X | previously determined antibiotic resistance (K. oxytoca; strain K. oxytoca CDC0071): X | previously determined antibiotic resistance (K. oxytoca; strain K. oxytoca CDC0147): X

Trimethoprim/Sulfamethoxazole
growth call at all antibiotic concentrations [1]: growth | sensitive/resistant call by MulitPath [1]: resistant | previously determined antibiotic resistance (P. aeruginosa; [2]): IR | previously determined antibiotic resistance (P. aeruginosa; strain P. aeruginosa CDC0105): IR | previously determined antibiotic resistance (P. aeruginosa; strain P. aeruginosa CDC0111): IR | previously determined antibiotic resistance (P. aeruginosa; strain P. aeruginosa CDC0232): IR | previously determined antibiotic resistance (P. aeruginosa; strain P. aeruginosa CDC0242): IR | previously determined antibiotic resistance (P. aeruginosa; strain P. aeruginosa CDC0247): IR | previously determined antibiotic resistance (P. aeruginosa; strain P. aeruginosa CDC0251): IR | previously determined antibiotic resistance (P. aeruginosa; strain P. aeruginosa CDC0253): IR | previously determined antibiotic resistance (P. aeruginosa; strain P. aeruginosa CDC0259): IR | previously determined antibiotic resistance (P. aeruginosa; strain P. aeruginosa CDC0261): IR | previously determined antibiotic resistance (P. aeruginosa; strain P. aeruginosa CDC0262): IR | previously determined antibiotic resistance (E. coli; strain E. coli ATCC 25922): X | previously determined antibiotic resistance (E. coli; strain E. coli BAA-2469): X | previously determined antibiotic resistance (E. coli; strain E. coli BAA-2471): X | previously determined antibiotic resistance (E. coli; strain E. coli CDC0017): X | previously determined antibiotic resistance (E. coli; strain E. coli CDC0019): X | previously determined antibiotic resistance (E. coli; strain E. coli CDC0084): X | previously determined antibiotic resistance (K. pneumoniae; [3]): X | previously determined antibiotic resistance (K. pneumoniae; strain K. pneumoniae CDC0010): X | previously determined antibiotic resistance (K. pneumoniae; strain K. pneumoniae CDC0016): X | previously determined antibiotic resistance (K. pneumoniae; strain K. pneumoniae CDC0107): X | previously determined antibiotic resistance (K. pneumoniae; strain K. pneumoniae CDC0117): X | previously determined antibiotic resistance (K. pneumoniae; strain K. pneumoniae CDC0126): X | previously determined antibiotic resistance (P. mirabilis; strain P. mirabilis ATCC 7002): X | previously determined antibiotic resistance (P. mirabilis; strain P. mirabilis CDC0029): X | previously determined antibiotic resistance (P. mirabilis; strain P. mirabilis CDC0059): X | previously determined antibiotic resistance (P. mirabilis; strain P. mirabilis CDC0155): X | previously determined antibiotic resistance (P. mirabilis; strain P. mirabilis CDC0156): X | previously determined antibiotic resistance (P. mirabilis; strain P. mirabilis CDC0159): X | previously determined antibiotic resistance (K. oxytoca; strain K. oxytoca CDC0028): X | previously determined antibiotic resistance (K. oxytoca; strain K. oxytoca CDC0071): X | previously determined antibiotic resistance (K. oxytoca; strain K. oxytoca CDC0147): X

O=C(O)c1cn(C2CC2)c2cc(N3CCNCC3)c(F)cc2c1=O [Ciprofloxacin]
previously determined antibiotic resistance (P. aeruginosa; [2]): X | previously determined antibiotic resistance (P. aeruginosa; strain P. aeruginosa CDC0251): X | previously determined antibiotic resistance (P. aeruginosa; strain P. aeruginosa CDC0253): X | previously determined antibiotic resistance (P. aeruginosa; strain P. aeruginosa CDC0259): X | previously determined antibiotic resistance (P. aeruginosa; strain P. aeruginosa CDC0261): X | previously determined antibiotic resistance (P. aeruginosa; strain P. aeruginosa CDC0262): X | previously determined antibiotic resistance (E. coli; strain E. coli ATCC 25922): X | previously determined antibiotic resistance (E. coli; strain E. coli BAA-2452): X | previously determined antibiotic resistance (E. coli; strain E. coli BAA-2469): X | previously determined antibiotic resistance (E. coli; strain E. coli BAA-2471): X | previously determined antibiotic resistance (E. coli; strain E. coli CDC0017): X | previously determined antibiotic resistance (E. coli; strain E. coli CDC0019): X | previously determined antibiotic resistance (K. pneumoniae; [3]): X | previously determined antibiotic resistance (K. pneumoniae; strain K. pneumoniae CDC0016): X | previously determined antibiotic resistance (K. pneumoniae; strain K. pneumoniae CDC0034): X | previously determined antibiotic resistance (K. pneumoniae; strain K. pneumoniae CDC0076): X | previously determined antibiotic resistance (K. pneumoniae; strain K. pneumoniae CDC0117): X | previously determined antibiotic resistance (K. pneumoniae; strain K. pneumoniae CDC0126): X | previously determined antibiotic resistance (P. mirabilis; strain P. mirabilis ATCC 7002): X | previously determined antibiotic resistance (P. mirabilis; strain P. mirabilis CDC0029): X | previously determined antibiotic resistance (P. mirabilis; strain P. mirabilis CDC0059): X | previously determined antibiotic resistance (P. mirabilis; strain P. mirabilis CDC0155): X | previously determined antibiotic resistance (P. mirabilis; strain P. mirabilis CDC0156): X | previously determined antibiotic resistance (P. mirabilis; strain P. mirabilis CDC0159): X | previously determined antibiotic resistance (K. oxytoca; strain K. oxytoca CDC0028): X | previously determined antibiotic resistance (K. oxytoca; strain K. oxytoca CDC0071): X | previously determined antibiotic resistance (K. oxytoca; strain K. oxytoca CDC0147): X

Cc1nnc(SCC2=C(C(=O)O)N3C(=O)[C@@H](NC(=O)Cn4cnnn4)[C@H]3SC2)s1 [Cefazolin]
growth call at all antibiotic concentrations [1]: growth | sensitive/resistant call by MulitPath [1]: resistant
